Assay results reported in US20210009914A1, “NOVEL APPLICATIONS OF PULSED ELECTRIC FIELD AND E-BEAM TECHNOLOGY” (KEMIN INDUSTRIES, INC., priority 2019, published 2021).

Legend:
Total Enterobacteriaceae [1] = assay: Total Enterobacteriaceae count in naturally contaminated broiler feed, antimicrobial products with/without PEF (Example 1); type: cell-based
Protocol: (§1) Feed materials. Pig feed, naturally contaminated with Enterobacteriaceae, was obtained from Feed Design Lab (the Netherlands). The naturally contaminated pig feed, not treated with an antimicrobial product, was diluted with mash broiler feed obtained from AVEVE until the required contamination level was obtained (Enterobacteriaceae contamination of 4 log cfu/g). After this dilution, the mash feed was mixed intensively to ensure a homogeneous contamination.
PEF treatments. PEF experiments were carried out using the PEFPilot™ System (220V, 50 Hz) at ELEA GmbH (Quakenbrück, Germany) at room temperature. The feed was stored at room temperature (20-25° C.) before treatment. An amount of 50 percent additional water (tap-water at room temperature), was added to the feed to prevent the formation of air bubbles, which increase the chance for a dielectric breakdown and arching. Before PEF treatment, the treatment chamber was filled with the feed, the feed was leveled and pressed using a plastic stick. […] Exponential decay pulses with width of 40 microseconds and frequency of 2 Hz were applied. An electric field strength of 5 kV/cm and specific energies of 12 (60 pulses), 120 (600 pulses) and 168 kJ/kg (840 pulses) were applied. The treatment chamber was rinsed after each treatment and pre-cooled in ice-water before new feed samples were added. Each PEF treatment consisted of at least two replicates. The temperature of the feed was measured just after the PEF treatment.
(§2) Application of antimicrobial products. The products were sprayed on a thin layer of the feed (portions of 300 g) by use of a nebulizer. The product Sal CURB® Ba Liquid (lot number: 1911110883) was dosed at 6 kg/T. Formic acid 85% (RM00672, lot 20000200403), the main component of Sal CURB Ba Liquid (i.e. 50% formic acid) was dosed at 3 kg/T and 6 kg/T. Sal CURB Ba Liquid also contains a mixture of different surfactants.
Test setups. The effect of the application of the antimicrobials alone on the naturally contaminated feed was tested in a separate experiment. In a first series of PEF experiments (first trial), the antimicrobial products were sprayed on the feed just after applying the PEF treatments, while for the second series of experiments (second trial) the antimicrobial products were applied on the feed before the PEF treatments.
(§3) Determination of total Enterobacteriacea level. The total Enterobacteriaceae level (TEC) of the feed samples not treated and treated with the antimicrobial products and/or PEF was determined at 24 h after PEF/product treatments. Three suspensions of each feed sample were prepared by mixing 10 g of the sample with 90 g of saline and by homogenizing the samples for 60 seconds in a Stomacher. RAPID' Enterobacteriaceae plates (Bio-Rad, 3564004) were inoculated using a spiral plate counter (Eddy Jet, IUL Instruments). The plates were incubated overnight at 37° C. for 24 h. After incubation, the colonies were counted manually. To obtain accurate results, the minimum number of colonies counted per plate was specified as 10 (a lower number gives less statistically significant results). Values below this limit, at the lowest sample dilution (100 cfu/g), were reported to a value equal to half of this limit (50 cfu/g). The colony-forming units were log-transformed prior to the statistical analyses. The microbiological data were analyzed using the Statgraphics Centurion XVI software (Statpoint Technologies, Inc., Virginia, USA). All data were subjected to one-way ANOVA and differences were separated using the least significant differences procedure. All statements of significance were based on a P-value less than 0.05, unless otherwise specified.

Total Enterobacteriaceae [2] = assay: Total Enterobacteriaceae count in naturally contaminated broiler feed, products before PEF at reduced additional water (Example 2); type: cell-based; conditions: 3 kg/T before PEF 5 kV/cm, medium 120 kJ/kg; for Log reduction: vs control of same water level
Protocol: as §1
as §2, with “500” for “300”, “191111883)” for “1911110883)”, “surfactants. After treatment, the samples were sent to ELEA GmbH (Quakenbrück, Germany) for PEF treatments.” for “surfactants.”
PEF treatments. PEF experiments were carried out using the PEFPilot™ System (220V, 50 Hz) at ELEA GmbH (Quakenbrück, Germany) at room temperature. The PEF treatments were performed at 8 days after application of the antimicrobial products. The feed samples were stored at room temperature (20-25° C.) before PEF treatment. Each PEF treatment consisted of at least two replicates. Quantities of 50, 20 and 15 percent additional water (tap-water at room temperature), were added to the feed to prevent the formation of air bubbles, which increase the chance for a dielectric breakdown and arching. Before PEF treatment, the treatment chamber was filled with the feed, the feed was leveled and pressed using a plastic stick. […] Exponential decay pulses with width of 40 microseconds and frequency of 2 Hz were applied. An electric field strength of 5 kV/cm and a specific energetic level of 120 kJ/kg (600 pulses) was applied. The treatment chamber was rinsed after each treatment and pre-cooled in ice-water before new feed samples were added.
Test setups. The antimicrobial products were always applied on the feed before the PEF treatments. The different quantities of added tap-water were mixed homogeneously in the feed just before the PEF treatments. After the treatments, all feed samples were stored at room temperature.
as §3, with “products” for “products and/or PEF”, “at 10 days after product treatment. The TEC of the PEF treated samples was determined at 48” for “at 24”, “after PEF treatment.” for “after PEF/product treatments.”, “counted manually, as explained in the Internal Instruction.” for “counted manually.”

SMILES: O=CO [Formic acid]
- Log (cfu/g) (Total Enterobacteriaceae [1]; 3 kg/T applied after PEF 5 kV/cm, high intensity 168 kJ/kg, 50% additional water): 3.34 h Log (cfu/g)
- Log reduction (Total Enterobacteriaceae [1]; 3 kg/T applied after PEF 5 kV/cm, high intensity 168 kJ/kg, vs no-treatment control): 0.92 log
- Log (cfu/g) (Total Enterobacteriaceae [1]; 3 kg/T applied after PEF 5 kV/cm, low intensity 12 kJ/kg, 50% additional water): 3.94 de Log (cfu/g)
- Log reduction (Total Enterobacteriaceae [1]; 3 kg/T applied after PEF 5 kV/cm, low intensity 12 kJ/kg, vs no-treatment control): 0.32 log
- Log (cfu/g) (Total Enterobacteriaceae [1]; 3 kg/T applied after PEF 5 kV/cm, medium intensity 120 kJ/kg, 50% additional water): 4.10 ad Log (cfu/g)
- Log reduction (Total Enterobacteriaceae [1]; 3 kg/T applied after PEF 5 kV/cm, medium intensity 120 kJ/kg, vs no-treatment control): 0.16 log
- Log (cfu/g) (Total Enterobacteriaceae [1]; 3 kg/T applied before PEF 5 kV/cm, high intensity 168 kJ/kg, 50% additional water): 2.95 d Log (cfu/g)
- Log reduction (Total Enterobacteriaceae [1]; 3 kg/T applied before PEF 5 kV/cm, high intensity 168 kJ/kg, vs no-treatment control): 2.14 log
- Log (cfu/g) (Total Enterobacteriaceae [1]; 3 kg/T applied before PEF 5 kV/cm, medium intensity 120 kJ/kg, 50% additional water): 3.58 c Log (cfu/g)
- Log reduction (Total Enterobacteriaceae [1]; 3 kg/T applied before PEF 5 kV/cm, medium intensity 120 kJ/kg, vs no-treatment control): 1.51 log
- Log (cfu/g) (Total Enterobacteriaceae [1]; 3 kg/T, no PEF, 50% additional water (Table 5, trial 2)): 4.15 b Log (cfu/g)
- Log reduction (Total Enterobacteriaceae [1]; 3 kg/T, no PEF, vs no-treatment control (Table 5, trial 2)): 0.94 log
- Log (cfu/g) (Total Enterobacteriaceae [1]; 3 kg/T, product alone, no PEF (Table 3)): 3.80 ab Log (cfu/g)
- Log reduction (Total Enterobacteriaceae [1]; 3 kg/T, product alone, no PEF, vs untreated control (Table 3)): 0.37 log
- Log (cfu/g) (Total Enterobacteriaceae [1]; 6 kg/T applied after PEF 5 kV/cm, high intensity 168 kJ/kg, 50% additional water): 3.06 i Log (cfu/g)
- Log reduction (Total Enterobacteriaceae [1]; 6 kg/T applied after PEF 5 kV/cm, high intensity 168 kJ/kg, vs no-treatment control): 1.20 log
- Log (cfu/g) (Total Enterobacteriaceae [1]; 6 kg/T applied after PEF 5 kV/cm, low intensity 12 kJ/kg, 50% additional water): 4.03 ade Log (cfu/g)
- Log reduction (Total Enterobacteriaceae [1]; 6 kg/T applied after PEF 5 kV/cm, low intensity 12 kJ/kg, vs no-treatment control): 0.23 log
- Log (cfu/g) (Total Enterobacteriaceae [1]; 6 kg/T applied after PEF 5 kV/cm, medium intensity 120 kJ/kg, 50% additional water): 3.71 fg Log (cfu/g)
- Log reduction (Total Enterobacteriaceae [1]; 6 kg/T applied after PEF 5 kV/cm, medium intensity 120 kJ/kg, vs no-treatment control): 0.55 log
- Log (cfu/g) (Total Enterobacteriaceae [1]; 6 kg/T applied before PEF 5 kV/cm, high intensity 168 kJ/kg, 50% additional water): 1.70 f^ Log (cfu/g)
- Log reduction (Total Enterobacteriaceae [1]; 6 kg/T applied before PEF 5 kV/cm, high intensity 168 kJ/kg, vs no-treatment control): 3.39 log
- Log (cfu/g) (Total Enterobacteriaceae [1]; 6 kg/T applied before PEF 5 kV/cm, medium intensity 120 kJ/kg, 50% additional water): 2.25 e Log (cfu/g)
- Log reduction (Total Enterobacteriaceae [1]; 6 kg/T applied before PEF 5 kV/cm, medium intensity 120 kJ/kg, vs no-treatment control): 2.84 log
- Log (cfu/g) (Total Enterobacteriaceae [1]; 6 kg/T, no PEF, 50% additional water (Table 5, trial 2)): 3.55 c Log (cfu/g)
- Log reduction (Total Enterobacteriaceae [1]; 6 kg/T, no PEF, vs no-treatment control (Table 5, trial 2)): 1.54 log
- Log (cfu/g) (Total Enterobacteriaceae [1]; 6 kg/T, product alone, no PEF (Table 3)): 3.33 b Log (cfu/g)
- Log reduction (Total Enterobacteriaceae [1]; 6 kg/T, product alone, no PEF, vs untreated control (Table 3)): 0.84 log
- Log (cfu/g) (Total Enterobacteriaceae [2]; 15% additional water): 2.83 c Log (cfu/g)
- Log reduction (Total Enterobacteriaceae [2]; 15% additional water): 1.44 log
- Log reduction (Total Enterobacteriaceae [2]; 15% additional water, listed as formic acid): 1.4 log
- Log (cfu/g) (Total Enterobacteriaceae [2]; 20% additional water): 2.30 d Log (cfu/g)
- Log reduction (Total Enterobacteriaceae [2]; 20% additional water): 2.20 log
- Log (cfu/g) (Total Enterobacteriaceae [2]; 50% additional water): 2.82 c Log (cfu/g)
- Log reduction (Total Enterobacteriaceae [2]; 50% additional water): 1.60 log
